Assay results as given in US20060166956A1, “Use of anecortave acetate for the protection of visual acuity in patients with age related macular degeneration” (priority 2002, published 2006).

How the values were obtained:
[1] = system: patients with exudative AMD; experiment: Clinical trial: clinical safety evaluation (Independent Safety Committee); type: in vivo
Text: (§1) Clinical efficacy data is being obtained from evaluations of best-corrected log MAR visual acuity and standardized fluorescein angiograms. Clinical safety data obtained from general physical examinations, laboratory evaluations of blood and urine, and complete ophthalmic examinations, including indocyanine green angiography, continue to be periodically evaluated by the Independent Safety Committee overseeing this study. Clinical data from evaluations for safety and efficacy performed at Day 1-2, Week 2, Week 6, Month 3, and Month 6 following patient randomization and treatment are reported here.
Following completion of the Month 6 visit by all patients, the accumulated safety data were evaluated by the Independent Safety Committee overseeing this study. […] The most common ocular changes reported were changes in lens opacity using the Lens Opacity Classification System (LOCS) II, and included reports of nuclear color, nuclear opalescence, cortical, and posterior subcapsular changes. Cataracts are a common intercurrent disorder in this patient population, and the changes seen were documented in all treatment groups and in contralateral (untreated) eyes. The cataractous changes reported were described as mild and typically unrelated to treatment. The second most common ocular change, a decrease in vision (defined as a decrease of ≧4 log MAR lines from the previous visit), is also a common problem in this patient population. These vision decreases occurred in all treatment groups and in the contralateral eye. Other ocular changes (occurring with a frequency greater than 5%) were ptosis, ocular pain, subconjunctival hemorrhage, ocular pruritis, ocular burning/stinging, pupil disorders, foreign body sensation, ocular hyperemia, and abnormal vision. These changes were reported in all four treatment groups, in both treated eyes and contralateral eyes, were characterized as primarily mild, were generally not attributed to treatment, and were transient in nature. The single report of an IOP increase (≧10 mmHg) from Baseline occurred in a patient treated with anecortave acetate 30 mg and was attributed to intercurrent illness. Of the ocular changes reported, those most frequently attributed to study treatment were ptosis, ocular pain, subconjunctival hemorrhage, ocular pruritis, and ocular burning/stinging. These treatment-related events were mostly mild, transient, and seen within all four treatment groups.

[2] = system: subfoveal CNV lesion secondary to AMD; experiment: Clinical trial: CNV lesion surface area change by standardized fluorescein angiograms (DARC); type: in vivo, patients; details: for inhibition of lesion growth, comparison with placebo: Month 6
Text: (§2) This ongoing trial was initiated to compare the clinical efficacy of anecortave acetate versus placebo treatment for preservation (maintenance) of vision and inhibition of CNV lesion growth. Patients with a log MAR visual acuity of 0.3 (20/40 Snellen equivalent) to 1.2 (20/320 Snellen equivalent) and primary or recurrent subfoveal choroidal neovascularization (CNV) secondary to AMD with a lesion up to 30.48 mm^2 (12 disc areas) in size were enrolled. At Baseline and follow-up visits, best-corrected log MAR visual acuity was obtained on all patients using guidelines previously established for the Early Treatment Diabetic Retinopathy Study. Patient lesion eligibility for this study was determined from standardized fluorescein angiograms at the Digital Angiography Reading Center (DARC) by certified Readers (trained retina specialists) prior to enrollment and treatment. The DARC also evaluated changes from Baseline in the fluorescein angiographic characteristics of the lesions in masked fashion. Each data point represents the average of at least two independent evaluations by DARC Readers. Because all angiographic data for this study is being collected using the same fundus camera and digital camera systems and stored as uncompressed digital images, the actual lesion surface areas can be more closely approximated in mm^2 rather than requiring the disc area “best-fit” estimates previously used for film angiographic data.
The primary efficacy outcome for this ongoing study is the mean change from Baseline in best-corrected log MAR visual acuity. Secondary efficacy outcomes are: the percentage of patients with preservation or maintenance of vision (defined as loss of less than three log MAR lines [less than 15 log MAR letters] of visual acuity); the percentage of patients with clinically significant worsening of vision (defined as a loss of at least three log MAR lines [at least 15 log MAR letters] of visual acuity); the percentage of patients with severe vision loss (defined as a loss of at least six log MAR lines [at least 30 log MAR letters] of visual acuity); and changes in CNV lesion characteristics (defined as total lesion area, total CNV and total classic CNV).
All efficacy analyses were based on the intent-to-treat principle. All patients received the medication to which they were assigned, and were analyzed accordingly. Last-observation-carry-forward was used to impute missing values. Baseline comparisons were tested using analysis of variance (for continuous outcomes) and Pearson's chi square (for binary outcomes). Changes from baseline in visual acuity and lesion parameters were tested in a repeated measures analysis of variance model with appropriate contrasts for the 6-month comparisons. Comparisons of binary outcomes at Month 6 were evaluated using Pearson's chi-square tests. All analyses of ocular outcomes are based on changes in the study (i.e., treated) eye.
Total lesion areas, total CNV areas, and total classic CNV areas were measured and compared among treatment groups.

[3] = system: patients with subfoveal choroidal neovascularization (CNV) secondary to AMD; experiment: Clinical trial: best-corrected log MAR visual acuity after single posterior juxtascleral administration; type: in vivo
Text: as §2
The 128 patients in this double-masked, dose-response study were enrolled and treated between April 1999 and May 2001 by 18 participating sites in the US and EU. Prior to treatment, patients were enrolled and equally randomized to anecortave acetate sterile suspension for injection 30 mg (N=33), 15 mg (N=33), or 3 mg (N=32) or to placebo (vehicle, N=30). Masking of the clinical sites as to treatment group is being maintained in two ways. Study medication is masked by placing the treatment kits including study medication and supplies for the posterior juxtascleral administration in sealed opaque boxes identified by patient number only. The boxes were numbered sequentially at each clinical site and patients were assigned the next available sequential number upon enrollment. The randomization was built into the sequential numbering of the treatment kits and blocked within each site to maintain equal distribution across treatment assignments. Masking as to treatment group is also being maintained at each site by having an unmasked injecting investigator perform the treatments and a masked examining investigator perform the subsequent evaluations. Upon enrollment of each patient, anecortave acetate or placebo was administered behind the eye as a 0.5 mL posterior juxtascleral injection onto the outer surface of the sclera near the macula using a specially designed cannula. The cannula is described in commonly owned U.S. Pat. No. 6,413,245B 1.
as §1, with “here. […]” for “here.”

In the case of `CC(=O)OCC(=O)[C@@]1(O)CC[C@H]2[C@@H]3CCC4=CC(=O)CC[C@]4(C)C3=CC[C@@]21C` [anecortave acetate, 4,9(11)-pregnadien-17α,21-diol-3,20 dione-21 acetate], the “reports of IOP increase (≧10 mmHg) from Baseline” value ([1]; 30 mg) is reported as “single report”, the “changes in blood chemistry, hematology, or urinalysis” value ([1]; all doses) is reported as “No treatment-related changes” and the “safety concerns identified by the Independent Safety Committee” value ([1]; all doses, after Month 6 visit) is reported as “no clinically relevant medication-related or administration-related safety concerns were identified”. The “ocular corticosteroid side effects (elevated intraocular pressure, accelerated cataract progression)” value ([1]; clinical study, at least 6 months exposure) was “no clinical evidence”, the “inhibition of lesion growth, comparison with placebo” value ([2]; 3 mg) was “trend favoring” and the “inhibition of total CNV surface area (percent change from Baseline), comparison with placebo” value ([2]; 15 mg, Month 6, p=0.0001) was “statistically superior to placebo treatment”. The “inhibition of total lesion surface area (percent change from Baseline), comparison with placebo” value ([2]; 15 mg, Month 6, p=0.0005) was “statistically superior to placebo treatment”, the “inhibition of total classic CNV surface area (percent change from Baseline), comparison with placebo” value ([2]; 15 mg, Month 6, p=0.0008) was “statistically superior to placebo treatment” and the “inhibition of lesion growth, comparison with placebo” value ([2]; 30 mg) was “trend favoring”. The “mean change at Month 6 from Baseline in log MAR visual acuity, comparison with placebo” value ([3]; 3 mg) was “Trends also favor treatment”, the “percentage of patients with preservation of vision (decrease of less than three log MAR lines)” value ([3]; 15 mg, Month 6, all patients) was 88% and the “percentage of patients with preservation of vision (decrease of less than three log MAR lines)” value ([3]; 15 mg, Month 6, subgroup with predominantly classic CNV lesion, p=0.0209 vs placebo) was 92%. For the same compound, the “mean change at Month 6 from Baseline in log MAR visual acuity, comparison with placebo” value ([3]; 15 mg, p=0.0032) was “statistically superior to placebo treatment” and the “mean change at Month 6 from Baseline in log MAR visual acuity, comparison with placebo” value ([3]; 30 mg) was “Trends also favor treatment”.
